Test results: patent US11865126B2, “Method for treating anxiety disorders, headache disorders, and eating disorders with psilocybin” (priority 2019, dated 2024)

Test system: healthy subjects
Test: CANTAB global composite score
Format: in vivo, human
Details: 10 mg vs placebo, Day 7
Protocol: The following list of outcome measures are non-exhaustive. • a. The short-term change from Baseline (Day −1 [Visit 2]) to Day 7 (Visit 5) in cognitive measures of attention, spatial and working memory and executive function was measured by a composite score of the CANTAB Panel (Spatial Working Memory [SWM], Rapid Visual Information Processing [RVP], Paired Associates Learning [PAL]). • b. The short-term change from Baseline (Day −1 [Visit 2]) to Day 7 (Visit 5) in Social Cognition Panel scales (Pictorial Empathy Test [PET], Reading the Mind in the Eyes Test [RMET], Toronto Empathy Questionnaire [TEQ], Social Value Orientation [SVO], Scale of Social Responsibility [SSR]). • c. The change from Baseline (Day −1 [Visit 2]) to Day 28 (Visit 6) in cognitive measures of attention, spatial and working memory and executive function as measured by a composite score of the CANTAB Panel (SWM, RVP, PAL). • d. […] Dose-related differences between cognitive effects of psilocybin at Baseline (Day −1 [Visit 2]), Day 7 (Visit 5) and Day 28 (Visit 6), as measured by a composite score of the CANTAB Panel (SWM, RVP, PAL). • f. Dose-related differences between psychological effects of psilocybin at Baseline (Day −1 [Visit 2]), Day 7 (Visit 5) and Day 84 (Visit 7), as measured by Social Cognition Panel scales (PET, RMET, TEQ, SVO, SSR). • g. […]

## CN(C)CCc1c[nH]c2cccc(OP(=O)(O)O)c12 [psilocybin]
  CANTAB global composite score, effect size: 0.53
